Laboratory results published in patent US12202835B2, “Substituted aromatic ring-linked dioxinoquinazolines and dioxinoquinolines as kinase inhibitors” (BEIJING SCITECH-MQ PHARMACEUTICALS LIMITED, priority 2018, dated 2025).
pIC50: −log10 of the molar value.

Key:
Type in all cases: biochemical
[1] = target: TRKA kinase (Homo sapiens (Human), UniProt P04629); assay: Assay of small molecular compounds for inhibiting the activity of TRKA kinase (LANCE TR-FRET)
Description: The assay of small molecular compounds for inhibiting the activity of TRKA kinase is based on the LANCE TR-FRET technology of Perkin Elmer Inc., and the assay method is as follows: • 1. […] 2.5 μL of the gradient-diluted compounds were taken with a transfer pipette to a 384-well plate. • 3. Addition of enzyme: 5 μL of 2×TRKA kinase solution (with a concentration of 2 nM) was taken with a transfer pipette to the corresponding reaction well of the 384-well plate, mixed well and pre-reacted at room temperature for 5 minutes. • 4. 2.5 μL 4× Ultra ULight-labeled TK Peptide (with a concentration of 400 nM)/ATP (with a concentration of 40 μM) mixture was taken with a transfer pipette to the corresponding reaction well of the 384-well plate. • 5. Negative control: 2.5 μL/well 4× substrate/ATP mixture and 7.5 μL 1× Kinase Assay Buffer were added to the wells of the 384-well plate.
(§1) Positive control: 2.5 μL/well 4× substrate/ATP mixture, 2.5 μL/well 1× Kinase Assay Buffer containing 4% DMSO, and 5 μL/well 2×TRKA kinase solution were added to the 384-well plate. The final concentration of DMSO in the reaction system was 1%. • 6. The mixture was mixed well and then centrifuged and reacted at room temperature in dark for 60 min. • 7. Termination of the enzymatic reaction: 5 μL of 4× stop solution was taken with a transfer pipette to the wells of the 384-well plate, mixed and then centrifuged, and reacted at room temperature for 5 min. • 8. Development of the reaction: 5 μL of 4× detection solution was taken with a transfer pipette to the wells of the 384-well plate for color development, and the mixture was mixed and then centrifuged and reacted at room temperature for 60 min. • 9. The 384-well plate was placed into the Envision plate reader and the signal was detected using the appropriate program.

[2] = target: c-MET kinase (Homo sapiens (Human), UniProt P08581); assay: Assay of small molecular compounds for inhibiting the activity of c-MET kinase (LANCE TR-FRET); details: read-out: CMET IC50
Description: The assay is based on the LANCE TR-FRET technology of Perkin Elmer Inc., and the assay method is as follows: • 1. Dilution of compounds: a total of 11 concentrations were obtained using a 3-fold gradient dilution from the highest concentration of 2500 nM (the maximum final concentration of the drug used in this assay was 2500 nM, and the minimum final concentration was 0.042 nM). • 2. 2.5 μL of the gradient-diluted compounds were taken with a transfer pipette to a 384-well plate. • 3. Addition of enzyme: 5 μL of 2×c-MET kinase solution (with a concentration of 2 nM) was taken with a transfer pipette to the corresponding reaction well of the 384-well plate, mixed well and pre-reacted at room temperature for 5 minutes. • 4. 2.5 μL 4× Ultra ULight™-JAK-1 (Tyr1023) Peptide (with a concentration of 400 nM)/ATP (with a concentration of 40 μM) mixture was taken with a transfer pipette to the corresponding reaction well of the 384-well plate. • 5. Negative control: 2.5 μL/well 4× substrate/ATP mixture and 7.5 μL 1× Kinase Assay Buffer were added to the wells of the 384-well plate. • 6. Positive control: 2.5 μL/well 4× substrate/ATP mixture, 2.5 μL/well 1× Kinase Assay Buffer containing 16% DMSO, and 5 μL/well 2× c-MET kinase solution were added to the 384-well plate. The final concentration of DMSO in the reaction system was 4%. • 7. The mixture was mixed well and then centrifuged and reacted at room temperature in dark for 60 min. • 8. Termination of the enzymatic reaction: 5 μL of 4× stop solution was taken with a transfer pipette to the wells of the 384-well plate, mixed and then centrifuged, and reacted at room temperature for 5 min. • 9. Development of the reaction: 5 μL of 4× detection solution was taken with a transfer pipette to the wells of the 384-well plate for color development, and the mixture was mixed and then centrifuged and reacted at room temperature for 60 min. • 10. The 384-well plate was placed into the Envision plate reader and the signal was detected using the appropriate program. • 11. Analysis and processing of the raw data: • 12. The drug concentrations and the corresponding inhibition rates were input into GraphPad Prism5 for calculation, and the inhibition rate of the compounds were calculated as follows: inhibition rate (%)=(reading of positive well−reading of experimental well)/(reading of positive control well−reading of negative control well)×100%. Processing with GraphPad Prism5 software yielded the corresponding IC50 values (the concentration of the compound at which 50% of the highest inhibition of the enzyme is achieved).

[3] = target: MER kinase (Homo sapiens (Human), UniProt Q12866); assay: Assay of small molecular compounds for inhibiting the activity of MER kinase (LANCE TR-FRET)
Description: The assay of small molecular compounds for inhibiting the activity of MER kinase is based on the LANCE TR-FRET technology of Perkin Elmer Inc., and the assay method is as follows: • 1. Dilution of compounds: a total of 11 concentrations were obtained using a 3-fold gradient dilution from the highest concentration of 2500 nM (the maximum final concentration of the drug used in this assay was 2500 nM, and the minimum final concentration was 0.042 nM). • 2. 2.5 μL of the gradient-diluted compounds were taken with a transfer pipette to a 384-well plate. • 3. Addition of enzyme: 5 μL of 2×MER kinase solution (with a concentration of 1 nM) was taken with a transfer pipette to the corresponding reaction well of the 384-well plate, mixed well and pre-reacted at room temperature for 5 minutes. • 4. 2.5 μL 4× ULight-labeled Ploy GT (with a concentration of 200 nM)/ATP (with a concentration of 20 μM) mixture was taken with a transfer pipette to the corresponding reaction well of the 384-well plate. • 5. Negative control: 2.5 μL/well 4× substrate/ATP mixture and 7.5 μL 1× Kinase Assay Buffer were added to the wells of the 384-well plate.
as §1, with “2×MER” for “2×TRKA”, “program. • 10. Analysis and processing of the raw data:” for “program.”
The drug concentrations and the corresponding inhibition rates were input into GraphPad Prism5 for calculation, and the inhibition rate of the compounds were calculated as follows: inhibition rate (%)=(reading of positive well−reading of experimental well)/(reading of positive control well−reading of negative control well)×100%. Processing with GraphPad Prism5 software yielded the corresponding IC50 values (the concentration of the compound at which 50% of the highest inhibition of the enzyme is achieved).

MER kinase, sequence (Q12866 21-999): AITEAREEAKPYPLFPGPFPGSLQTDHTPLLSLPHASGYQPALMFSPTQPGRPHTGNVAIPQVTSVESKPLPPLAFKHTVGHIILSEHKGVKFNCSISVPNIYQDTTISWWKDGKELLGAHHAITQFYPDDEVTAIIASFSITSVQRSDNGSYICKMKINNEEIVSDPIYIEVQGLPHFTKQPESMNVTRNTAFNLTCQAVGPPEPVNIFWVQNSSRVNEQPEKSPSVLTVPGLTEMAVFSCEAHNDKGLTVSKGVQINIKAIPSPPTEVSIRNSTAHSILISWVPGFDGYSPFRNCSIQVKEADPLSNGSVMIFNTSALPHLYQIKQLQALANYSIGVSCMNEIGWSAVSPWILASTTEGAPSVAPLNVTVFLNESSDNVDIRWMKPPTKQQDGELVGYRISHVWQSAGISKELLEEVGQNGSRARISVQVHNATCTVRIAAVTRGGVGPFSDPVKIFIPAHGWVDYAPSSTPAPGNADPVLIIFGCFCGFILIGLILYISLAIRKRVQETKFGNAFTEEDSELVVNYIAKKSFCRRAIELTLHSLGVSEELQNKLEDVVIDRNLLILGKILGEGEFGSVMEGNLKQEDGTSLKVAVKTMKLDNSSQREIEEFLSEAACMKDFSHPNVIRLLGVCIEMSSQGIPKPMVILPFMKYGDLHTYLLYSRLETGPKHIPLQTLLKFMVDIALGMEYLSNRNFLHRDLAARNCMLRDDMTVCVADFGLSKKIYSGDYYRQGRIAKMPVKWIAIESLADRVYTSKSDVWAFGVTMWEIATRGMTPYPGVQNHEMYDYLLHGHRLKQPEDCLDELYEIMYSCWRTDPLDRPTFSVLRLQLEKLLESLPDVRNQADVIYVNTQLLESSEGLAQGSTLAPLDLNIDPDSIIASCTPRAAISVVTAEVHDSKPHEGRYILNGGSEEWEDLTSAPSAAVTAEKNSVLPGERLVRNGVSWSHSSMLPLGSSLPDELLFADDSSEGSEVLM
c-MET kinase, sequence (P08581 25-1390): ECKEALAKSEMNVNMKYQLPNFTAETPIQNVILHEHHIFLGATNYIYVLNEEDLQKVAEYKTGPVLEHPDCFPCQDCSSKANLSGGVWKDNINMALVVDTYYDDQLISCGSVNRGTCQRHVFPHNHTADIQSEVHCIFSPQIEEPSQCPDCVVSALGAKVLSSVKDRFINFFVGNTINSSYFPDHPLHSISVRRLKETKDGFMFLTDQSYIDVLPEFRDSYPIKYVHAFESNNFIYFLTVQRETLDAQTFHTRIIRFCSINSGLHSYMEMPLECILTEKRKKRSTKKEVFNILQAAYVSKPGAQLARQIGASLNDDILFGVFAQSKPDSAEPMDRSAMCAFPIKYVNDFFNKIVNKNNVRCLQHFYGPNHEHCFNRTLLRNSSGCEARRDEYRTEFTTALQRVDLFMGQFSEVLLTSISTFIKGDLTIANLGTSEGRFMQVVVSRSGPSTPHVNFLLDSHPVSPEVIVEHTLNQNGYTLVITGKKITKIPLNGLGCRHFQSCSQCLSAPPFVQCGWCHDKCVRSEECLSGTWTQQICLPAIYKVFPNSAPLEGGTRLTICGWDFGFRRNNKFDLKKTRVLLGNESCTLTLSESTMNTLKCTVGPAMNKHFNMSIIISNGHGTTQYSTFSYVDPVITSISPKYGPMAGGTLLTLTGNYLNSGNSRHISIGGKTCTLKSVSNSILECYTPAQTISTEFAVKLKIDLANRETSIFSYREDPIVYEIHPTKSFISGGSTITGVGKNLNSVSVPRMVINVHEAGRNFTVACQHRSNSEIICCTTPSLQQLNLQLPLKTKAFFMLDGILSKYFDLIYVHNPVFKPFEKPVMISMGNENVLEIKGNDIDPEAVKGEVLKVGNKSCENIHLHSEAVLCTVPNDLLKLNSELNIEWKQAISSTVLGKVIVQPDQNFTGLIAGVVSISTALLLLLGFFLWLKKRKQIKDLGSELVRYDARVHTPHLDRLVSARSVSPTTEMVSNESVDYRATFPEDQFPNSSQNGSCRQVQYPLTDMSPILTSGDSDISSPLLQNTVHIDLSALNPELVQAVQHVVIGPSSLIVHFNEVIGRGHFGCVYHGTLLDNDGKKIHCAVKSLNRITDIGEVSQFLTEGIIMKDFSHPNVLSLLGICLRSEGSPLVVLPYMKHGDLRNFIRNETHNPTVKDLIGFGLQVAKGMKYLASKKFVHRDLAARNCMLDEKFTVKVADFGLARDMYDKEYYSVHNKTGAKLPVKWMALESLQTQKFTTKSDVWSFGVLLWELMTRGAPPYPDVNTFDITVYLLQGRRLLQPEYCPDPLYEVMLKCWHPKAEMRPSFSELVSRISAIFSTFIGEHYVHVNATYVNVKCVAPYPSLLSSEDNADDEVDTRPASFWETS
TRKA kinase, sequence (P04629 33-796): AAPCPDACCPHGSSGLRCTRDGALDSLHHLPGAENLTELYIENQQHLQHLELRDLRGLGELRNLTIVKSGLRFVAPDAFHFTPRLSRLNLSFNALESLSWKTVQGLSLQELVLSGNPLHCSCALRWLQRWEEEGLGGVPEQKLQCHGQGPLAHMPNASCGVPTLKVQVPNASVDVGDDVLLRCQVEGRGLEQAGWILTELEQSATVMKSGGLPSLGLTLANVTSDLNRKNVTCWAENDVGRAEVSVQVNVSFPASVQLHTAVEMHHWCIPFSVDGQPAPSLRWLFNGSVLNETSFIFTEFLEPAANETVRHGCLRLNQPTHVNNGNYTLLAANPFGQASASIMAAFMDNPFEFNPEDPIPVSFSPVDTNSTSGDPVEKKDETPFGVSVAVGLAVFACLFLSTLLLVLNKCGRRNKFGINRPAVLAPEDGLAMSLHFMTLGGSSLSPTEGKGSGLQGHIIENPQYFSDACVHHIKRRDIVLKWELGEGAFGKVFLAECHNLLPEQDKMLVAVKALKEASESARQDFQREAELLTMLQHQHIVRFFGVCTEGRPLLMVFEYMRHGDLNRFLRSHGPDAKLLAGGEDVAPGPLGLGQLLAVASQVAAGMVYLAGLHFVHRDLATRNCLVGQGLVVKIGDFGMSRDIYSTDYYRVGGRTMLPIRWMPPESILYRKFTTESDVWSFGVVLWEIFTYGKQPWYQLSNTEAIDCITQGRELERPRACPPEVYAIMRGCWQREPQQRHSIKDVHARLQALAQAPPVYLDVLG

| SMILES | pIC50 [1] | pIC50 [2] | pIC50 [3] |
| --- | --- | --- | --- |
| CCOc1cn(-c2ccc(F)cc2C)nc1C(=O)Nc1ccc(Oc2ccnc3cc(OC)c4c(c23)OCCO4)c(F)c1 [Example 25, 1-(4-fluoro-2-methylphenyl)-N-(3-fluoro-4-((5-methoxy-2,3-dihydro-[1,4]dioxino[2,3-f]quinolin-10-yl)oxy)phenyl)-4-ethoxy-1H-pyrazole-3-carboxamide] | 6.30 to 7.30 | 6.30 to 7.30 | 6.30 to 7.30 |
| CC(C)COc1cc2nccc(Oc3ccc(NC(=O)c4cn(C)c(=O)n(-c5ccc(F)cc5)c4=O)cc3F)c2c2c1OCCO2 [Example 83, N-(3-fluoro-4-((5-(isobutoxy)-2,3-dihydro-[1,4]dioxino[2,3-f]quinolin-10-yl)oxy)phenyl)-3-(4-fluorophenyl)-1-methyl-2,4-dioxo-1,2,3,4-tetrahydropyrimidine-5-carboxamide] | 6.30 to 7.30 | 5.30 to 6.30 | 6.30 to 7.30 |
| CCOc1cn(-c2ccc(F)cc2C)nc1C(=O)Nc1ccc(Oc2ncnc3cc(OC)c4c(c23)OCCO4)c(F)c1 [Example 9, 1-(4-fluoro-2-methylphenyl)-N-(3-fluoro-4-((5-methoxy-2,3-dihydro-[1,4]dioxino[2,3-f]quinazolin-10-yl)oxy)phenyl)-4-ethoxy-1H-pyrazole-3-carboxamide] |  | 6.30 to 7.30 | 5.30 to 6.30 |
| COc1cc2nccc(Oc3ccc(NC(=O)c4cn(C(C)C)c(=O)n(-c5ccc(F)cc5)c4=O)cc3F)c2c2c1OCCO2 [Example 14, N-(3-fluoro-4-((5-methoxy-2,3-dihydro-[1,4]dioxino[2,3-f]quinolin-10-yl)oxy)phenyl)-3-(4-fluorophenyl)-1-isopropyl-2,4-dioxo-1,2,3,4-tetrahydropyrimidine-5-carboxamide] | 6.30 to 7.30 | ≥ 7.30 | ≥ 7.30 |
| COc1cc2nccc(Oc3cc(Cl)c(NC(=O)c4cn(C(C)C)c(=O)n(-c5ccc(F)cc5)c4=O)cc3F)c2c2c1OCCO2 [Example 118, N-(2-chloro-5-fluoro-4-((5-methoxy-2,3-dihydro-[1,4]dioxino[2,3-f]quinolin-10-yl)oxy)phenyl)-3-(4-fluorophenyl)-1-isopropyl-2,4-dioxo-1,2,3,4-tetrahydropyrimidine-5-carboxamide] | 6.30 to 7.30 | 6.30 to 7.30 | 6.30 to 7.30 |
| COc1cc2nccc(Oc3ccc(NC(=O)c4cn(CC(C)C)c(=O)n(-c5ccc(F)cc5)c4=O)cc3F)c2c2c1OCCO2 [Example 47, N-(3-fluoro-4-((5-methoxy-2,3-dihydro-[1,4]dioxino[2,3-f]quinolin-10-yl)oxy)phenyl)-3-(4-fluorophenyl)-1-isobutyl-2,4-dioxo-1,2,3,4-tetrahydropyrimidine-5-carboxamide] | 6.30 to 7.30 | ≥ 7.30 | 6.30 to 7.30 |
| COc1cc2nccc(Oc3ccc(NC(=O)c4cn(CC5CC5)c(=O)n(-c5ccc(F)cc5)c4=O)cc3F)c2c2c1OCCO2 [Example 48, N-(3-fluoro-4-((5-methoxy-2,3-dihydro-[1,4]dioxino[2,3-f]quinolin-10-yl)oxy)phenyl)-3-(4-fluorophenyl)-1-(cyclopropylmethyl)-2,4-dioxo-1,2,3,4-tetrahydropyrimidine-5-carboxamide] | 6.30 to 7.30 | ≥ 7.30 | 6.30 to 7.30 |
| COc1cc2nccc(Oc3ccc(NC(=O)c4cn(CCCN5CCOCC5)c(=O)n(-c5ccc(F)cc5)c4=O)cc3F)c2c2c1OCCO2 [Example 102, N-(3-fluoro-4-((5-methoxy-2,3-dihydro-[1,4]dioxino[2,3-f]quinolin-10-yl)oxy)phenyl)-3-(4-fluorophenyl)-1-(3-morpholinopropyl)-2,4-dioxo-1,2,3,4-tetrahydropyrimidine-5-carboxamide] | 6.30 to 7.30 | ≥ 7.30 | ≥ 7.30 |
| Cn1cc(C(=O)Nc2ccc(Oc3ccnc4cc(OCCCC#N)c5c(c34)OCCO5)cc2Cl)c(=O)n(-c2ccc(F)cc2)c1=O [Example 133, N-(2-chloro-4-((5-(3-cyanopropoxy)-2,3-dihydro-[1,4]dioxino[2,3-f]quinolin-10-yl)oxy)phenyl)-3-(4-fluorophenyl)-1-methyl-2,4-dioxo-1,2,3,4-tetrahydropyrimidine-5-carboxamide] | 6.30 to 7.30 | ≥ 7.30 | 5.30 to 6.30 |
| COc1cc2nccc(Oc3ccc(NC(=O)c4cn(C(C)C)c(=O)n(Cc5ccc(F)cc5)c4=O)cc3F)c2c2c1OCCO2 [Example 111, N-(3-fluoro-4-((5-methoxy-2,3-dihydro-[1,4]dioxino[2,3-f]quinolin-10-yl)oxy)phenyl)-3-(4-fluorobenzyl)-1-isopropyl-2,4-dioxo-1,2,3,4-tetrahydropyrimidine-5-carboxamide] | 5.30 to 6.30 | 5.30 to 6.30 | 6.30 to 7.30 |
| COc1cc2nccc(Oc3ccc(NC(=O)c4cn(C(C)C)c(=O)n(-c5ccccc5F)c4=O)cc3F)c2c2c1OCCO2 [Example 110, N-(3-fluoro-4-((5-methoxy-2,3-dihydro-[1,4]dioxino[2,3-f]quinolin-10-yl)oxy)phenyl)-3-(2-fluorophenyl)-1-isopropyl-2,4-dioxo-1,2,3,4-tetrahydropyrimidine-5-carboxamide] | 5.30 to 6.30 | ≥ 7.30 | ≥ 7.30 |
| COc1cn(-c2ccc(F)cc2C)nc1C(=O)Nc1ccc(Oc2ncnc3cc(OC)c4c(c23)OCCO4)c(F)c1 [Example 8, 1-(4-fluoro-2-methylphenyl)-N-(3-fluoro-4-((5-methoxy-2,3-dihydro-[1,4]dioxino[2,3-f]quinazolin-10-yl)oxy)phenyl)-4-methoxy-1H-pyrazole-3-carboxamide] |  | 6.30 to 7.30 | 5.30 to 6.30 |
